Data as given in ChEMBL document CHEMBL1201862, “PubChem BioAssay data set” (2004).
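These data come from cells grown in 96-well plates and exposed to compound for 48 hours at five concentrations. GI50 marks 50% less growth.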 Calls of active or inactive are those of the source. Rule as the data show it: active = GI50 up to about 1.1 µM and inactive = higher.

Tests used:
Assay in all cases: growth of human tumour cells (NCI), 48 h
A498 = system: A498
HCT-116 = system: HCT-116
SR = system: SR
HL-60 = system: HL-60
HCC 2998 = system: HCC 2998
TK-10 = system: TK-10
KM-20L2 = system: KM-20L2
COLO 205 = system: COLO 205
PC-3 = system: PC-3
SNB-19 = system: SNB-19
M19-MEL = system: M19-MEL
SW-620 = system: SW-620
T47D = system: T47D
NCI-H522 = system: NCI-H522
SNB-78 = system: SNB-78
NCI-H460 = system: NCI-H460
RXF 393 = system: RXF 393
NCI-H23 = system: NCI-H23
UACC-62 = system: UACC-62
HOP-62 = system: HOP-62
K562 = system: K562
RPMI-8226 = system: RPMI-8226
SF-268 = system: SF-268
SNB-75 = system: SNB-75
IGROV-1 = system: IGROV-1
OVCAR-8 = system: OVCAR-8
U-251 = system: U-251
MDA-MB-435 = system: MDA-MB-435
SN12C = system: SN12C
EKVX = system: EKVX
CAKI-1 = system: CAKI-1
SF-295 = system: SF-295
SK-MEL-28 = system: SK-MEL-28
CCRF-CEM = system: CCRF-CEM
LOX IMVI = system: LOX IMVI
Malme-3M = system: Malme-3M
BT-549 = system: BT-549
M14 = system: M14
NCI/ADR-RES = system: NCI/ADR-RES
DLD-1 = system: DLD-1
OVCAR-4 = system: OVCAR-4
MCF7 = system: MCF7
DMS-114 = system: DMS-114
786-0 = system: 786-0
KM12 = system: KM12
HT-29 = system: HT-29
MDA-MB-231 = system: MDA-MB-231
DU-145 = system: DU-145
XF498 = system: XF498
SF-539 = system: SF-539
NCI-H226 = system: NCI-H226
HCT-15 = system: HCT-15
MDA-N = system: MDA-N
SK-OV-3 = system: SK-OV-3
UACC-257 = system: UACC-257
SK-MEL-5 = system: SK-MEL-5
HOP-92 = system: HOP-92
OVCAR-5 = system: OVCAR-5
A549 = system: A549
ACHN = system: ACHN
UO-31 = system: UO-31
OVCAR-3 = system: OVCAR-3
LXFL 529 = system: LXFL 529
Hs-578T = system: Hs-578T
MOLT-4 = system: MOLT-4
HOP-18 = system: HOP-18
SK-MEL-2 = system: SK-MEL-2

CC1=NN(C(=O)c2ccccc2O)C(=O)/C1=C/c1ccc([N+](=O)[O-])cc1
GI50 (A498): 0.0419 µM (active) | GI50 (HCT-116): 0.116 µM (active) | GI50 (SR): 0.473 µM (active) | GI50 (HL-60): 0.508 µM (active) | GI50 (HCC 2998): 1.85 µM (inactive) | GI50 (TK-10): > 24.2 µM (inactive) | GI50 (KM-20L2): 7.96 µM (inactive) | GI50 (COLO 205): 16.5 µM (inactive) | GI50 (PC-3): 1.36 µM (inactive) | GI50 (SNB-19): 0.0782 µM (active) | GI50 (M19-MEL): 2.3 µM (inactive) | GI50 (SW-620): 0.738 µM (active) | GI50 (T47D): 1.89 µM (inactive) | GI50 (NCI-H522): 0.615 µM (active) | GI50 (SNB-78): 0.0861 µM (active) | GI50 (NCI-H460): 0.114 µM (active) | GI50 (RXF 393): < 0.01 µM (active) | GI50 (NCI-H23): 0.177 µM (active) | GI50 (UACC-62): 0.0603 µM (active) | GI50 (HOP-62): 0.536 µM (active) | GI50 (K562): 0.0434 µM (active) | GI50 (RPMI-8226): 1.88 µM (inactive) | GI50 (SF-268): 0.0855 µM (active) | GI50 (SNB-75): 0.248 µM (active) | GI50 (IGROV-1): 0.0635 µM (active) | GI50 (OVCAR-8): 0.203 µM (active) | GI50 (U-251): 0.0991 µM (active) | GI50 (MDA-MB-435): 0.106 µM (active) | GI50 (SN12C): 0.372 µM (active) | GI50 (EKVX): 1.2 µM (inactive) | GI50 (CAKI-1): 0.455 µM (active) | GI50 (SF-295): 0.131 µM (active) | GI50 (SK-MEL-28): 31.6 µM (inactive) | GI50 (CCRF-CEM): 0.407 µM (active) | GI50 (LOX IMVI): 0.267 µM (active) | GI50 (Malme-3M): 0.247 µM (active) | GI50 (BT-549): 0.328 µM (active) | GI50 (M14): 0.437 µM (active) | GI50 (NCI/ADR-RES): 0.664 µM (active) | GI50 (DLD-1): 0.0643 µM (active) | GI50 (OVCAR-4): 0.482 µM (active) | GI50 (MCF7): 0.726 µM (active) | GI50 (DMS-114): 0.0875 µM (active) | GI50 (786-0): 0.299 µM (active) | GI50 (KM12): 0.161 µM (active) | GI50 (HT-29): 5.97 µM (inactive) | GI50 (MDA-MB-231): 26.9 µM (inactive) | GI50 (DU-145): 0.481 µM (active) | GI50 (XF498): 0.664 µM (active) | GI50 (SF-539): 0.0951 µM (active) | GI50 (NCI-H226): 0.459 µM (active) | GI50 (HCT-15): 0.361 µM | GI50 (MDA-N): 0.413 µM (active) | GI50 (SK-OV-3): 0.0966 µM (active) | GI50 (UACC-257): 1.91 µM (inactive) | GI50 (SK-MEL-5): 0.239 µM (active) | GI50 (HOP-92): 0.411 µM (active) | GI50 (OVCAR-5): 3.12 µM (inactive) | GI50 (A549): 0.0931 µM (active) | GI50 (ACHN): 0.106 µM (active) | GI50 (UO-31): 0.103 µM (active) | GI50 (OVCAR-3): 0.172 µM (active) | GI50 (LXFL 529): 0.0586 µM (active) | GI50 (Hs-578T): 0.348 µM (active)

Cc1ccc(NC(=O)C2C(=O)N(c3ccc(C)c(C)c3)C(=O)/C2=N\NC(N)=O)cc1C (stereo not given)
GI50 (A498): > 100 µM (inactive) | GI50 (HCT-116): 85.3 µM (inactive) | GI50 (HL-60): 81.5 µM (inactive) | GI50 (HCC 2998): > 100 µM (inactive) | GI50 (TK-10): > 100 µM (inactive) | GI50 (KM-20L2): > 100 µM (inactive) | GI50 (COLO 205): > 100 µM (inactive) | GI50 (SNB-19): > 100 µM (inactive) | GI50 (M19-MEL): > 100 µM (inactive) | GI50 (SW-620): > 100 µM (inactive) | GI50 (NCI-H522): 55.1 µM (inactive) | GI50 (SNB-78): > 100 µM (inactive) | GI50 (NCI-H460): > 100 µM (inactive) | GI50 (RXF 393): > 100 µM (inactive) | GI50 (NCI-H23): 42.8 µM (inactive) | GI50 (UACC-62): 94.6 µM (inactive) | GI50 (HOP-62): > 100 µM (inactive) | GI50 (K562): 52.7 µM (inactive) | GI50 (RPMI-8226): 69.2 µM (inactive) | GI50 (SF-268): 74 µM (inactive) | GI50 (SNB-75): > 100 µM (inactive) | GI50 (IGROV-1): 89.5 µM (inactive) | GI50 (OVCAR-8): 62.2 µM (inactive) | GI50 (MOLT-4): 88.9 µM (inactive) | GI50 (U-251): 57.3 µM (inactive) | GI50 (SN12C): 77.3 µM (inactive) | GI50 (EKVX): 55.8 µM (inactive) | GI50 (CAKI-1): > 100 µM (inactive) | GI50 (SF-295): 86.9 µM (inactive) | GI50 (SK-MEL-28): > 100 µM (inactive) | GI50 (CCRF-CEM): 73.8 µM (inactive) | GI50 (LOX IMVI): > 100 µM (inactive) | GI50 (Malme-3M): > 100 µM (inactive) | GI50 (M14): > 100 µM (inactive) | GI50 (DLD-1): > 100 µM (inactive) | GI50 (OVCAR-4): > 100 µM (inactive) | GI50 (DMS-114): 56.9 µM (inactive) | GI50 (786-0): > 100 µM (inactive) | GI50 (KM12): > 100 µM (inactive) | GI50 (HT-29): > 100 µM (inactive) | GI50 (XF498): > 100 µM (inactive) | GI50 (SF-539): > 100 µM (inactive) | GI50 (HOP-18): 7.85 µM (inactive) | GI50 (NCI-H226): > 100 µM (inactive) | GI50 (HCT-15): 79.4 µM | GI50 (SK-OV-3): > 100 µM (inactive) | GI50 (UACC-257): > 100 µM (inactive) | GI50 (SK-MEL-5): > 100 µM (inactive) | GI50 (HOP-92): 63.5 µM (inactive) | GI50 (OVCAR-5): > 100 µM (inactive) | GI50 (A549): 52.8 µM (inactive) | GI50 (ACHN): > 100 µM (inactive) | GI50 (SK-MEL-2): 96.4 µM (inactive) | GI50 (UO-31): 57.4 µM (inactive) | GI50 (OVCAR-3): 38.4 µM (inactive) | GI50 (LXFL 529): 59.7 µM (inactive)
